Measured values reported in patent EP4707280A1, “1,4-CINEOLE DERIVATIVE AND INTERMEDIATE THEREOF, HERBICIDE CONTAINING SAID DERIVATIVE AS ACTIVE INGREDIENT, METHOD FOR USING HERBICIDE, AND METHOD FOR PREPARING AGROCHEMICAL COMPOSITION” (HOKKO CHEMICAL INDUSTRY CO., LTD., priority 2023, dated 2024).

What was measured:
Format in all cases: in vivo
[1] = system: Echinochloa crus-galli var. formosensis; experiment: Test Example 5: herbicidal effect test by soil application in paddy rice (low dose); conditions: Echinochloa crus-galli, soil, 336 h; 7.5 g per 10 ares; applied immediately after sowing, flooded pots; 14 days after application; read-out: weed inhibition rate
Outline: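 Paddy-soil pots, weeds sown 0–1 cm deep and flooded to about 3 cm in a greenhouse. Emulsifiable concentrate diluted in water and dropped in right after sowing at 7.5 g active ingredient per 10 ares. Duplicates; effect scored 14 days after application.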

[2] = system: Echinochloa crus-galli; experiment: Test Example 4: herbicidal effect test by stem and leaf treatment in upland field; conditions: Echinochloa crus-galli; 120 g per 10 ares; sprayed seven days after sowing, upland soil; 14 days after application; read-out: weed inhibition rate
[3] = system: Echinochloa crus-galli var. formosensis; experiment: Test Example 6: herbicidal effect test by application during growth period of paddy rice (low dose); conditions: Echinochloa crus-galli; 7.5 g per 10 ares; applied seven days after sowing, flooded pots; 14 days after application; read-out: weed inhibition rate
Outline: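 Formulated compound, diluted in water, was dropped onto flooded pots seven days post-sowing at 7.5 g a.i. per 10 ares. Seeds had been sown 0-1 cm deep in puddled paddy soil under ~3 cm water in a glass greenhouse. Inhibition (%) assessed at 14 days; duplicate pots.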

[4] = system: Monochoria vaginalis; experiment: Test Example 1: herbicidal effect test by soil application in paddy rice; conditions: Pontederia vaginalis, soil, 336 h; 120 g active ingredient per 10 ares; applied immediately after sowing, flooded pots; 14 days after application; read-out: weed inhibition rate
Outline: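 Inhibition rate (%) read 14 days after treatment, duplicate pots. Water-diluted emulsifiable concentrate was applied by dropper at 120 g active ingredient/10 ares right after sowing. Seeds (30 per species, 0–1 cm deep) went into puddled paddy soil kept flooded at about 3 cm in a greenhouse.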

[5] = system: Monochoria vaginalis; experiment: Test Example 2: herbicidal effect test by application during growth period of paddy rice; conditions: Pontederia vaginalis; 120 g per 10 ares; applied seven days after sowing, flooded pots; 14 days after application; read-out: weed inhibition rate
Outline: (§1)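 Paddy soil in flooded pots (water depth about 3 cm) was sown with weed seeds and kept in a glass greenhouse. Seven days after sowing, a diluted emulsifiable concentrate was applied by dropper at 120 g active ingredient per 10 ares. Weed inhibition was evaluated 14 days after application, in duplicate.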

[6] = system: Echinochloa crus-galli var. formosensis; experiment: as above; conditions: Echinochloa crus-galli; 120 g per 10 ares; applied seven days after sowing, flooded pots; 14 days after application; read-out: weed inhibition rate
Outline: as §1

[7] = system: Scirpus juncoides; experiment: as above; conditions: Schoenoplectiella juncoides; 120 g per 10 ares; applied seven days after sowing, flooded pots; 14 days after application; read-out: weed inhibition rate
Outline: as §1

[8] = system: Echinochloa crus-galli; experiment: Test Example 8: herbicidal effect test by stem and leaf treatment in upland field (low dose); conditions: Echinochloa crus-galli; 7.5 g per 10 ares; sprayed seven days after sowing, upland soil; 14 days after application; read-out: weed inhibition rate
[9] = system: Digitaria ciliaris; experiment: as above; conditions: Digitaria ciliaris; 7.5 g per 10 ares; sprayed seven days after sowing, upland soil; 14 days after application; read-out: weed inhibition rate
[10] = system: Echinochloa crus-galli; experiment: Test Example 7: herbicidal effect test by soil application in upland field (low dose); conditions: Echinochloa crus-galli, 7.5 g per 10 ares, sprayed one day after sowing, 14 days after application, read-out: weed inhibition rate
Outline: (§2)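 Upland alluvial loam pots, seeds mixed into top 1 cm of soil; one day after sowing, diluted emulsifiable concentrate sprayed on soil at 100 L/10 a, giving 7.5 g active ingredient/10 a. Duplicate pots; weed inhibition rate (%) scored 14 days after application.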

[11] = system: Digitaria ciliaris; experiment: as above; conditions: Digitaria ciliaris, 7.5 g per 10 ares, sprayed one day after sowing, 14 days after application, read-out: weed inhibition rate
Outline: as §2

CC(C)[C@]12C[C@@H](OCc3ccccc3F)[C@](C)(C[C@@H]1OCc1ccccc1F)O2 [1-603, (1S,2R,4R,5S)-2,5-bis[(2-fluorophenyl)methoxy]-1-methyl-4-isopropyl-7-oxabicyclo[2.2.1]heptane]
≥ 80%: inhibition at 75 g/ha [1] | inhibition at 1200 g/ha [2] | inhibition at 75 g/ha [3] | pest or weed control at 1200 g/ha [4] | inhibition at 1200 g/ha [5] | inhibition at 1200 g/ha [6] | inhibition at 1200 g/ha [7]

CC(C)=CCO[C@@H]1C[C@]2(C(C)C)O[C@@]1(C)C[C@@H]2Br [1-672, (1S,2R,4R,5S)-5-bromo-1-methyl-2-(3-methylbut-2-enoxy)-4-isopropyl-7-oxabicyclo[2.2.1]heptane]
≥ 80%: inhibition at 75 g/ha [8] | inhibition at 75 g/ha [9] | inhibition at 75 g/ha [1] | inhibition at 1200 g/ha [2] | inhibition at 75 g/ha [3] | pest or weed control at 1200 g/ha [4] | inhibition at 1200 g/ha [5] | inhibition at 1200 g/ha [6] | inhibition at 1200 g/ha [7]

Cc1ccc(CO[C@@H]2C[C@]3(C(C)C)O[C@@]2(C)C[C@@H]3Br)cc1 [1-681, (1S,2R,4R,5S)-5-bromo-1-methyl-2-[(4-methylphenyl)methoxy]-4-isopropyl-7-oxabicyclo[2.2.1]heptane]
≥ 80%: inhibition at 75 g/ha [8] | inhibition at 75 g/ha [9] | inhibition at 75 g/ha [1] | inhibition at 1200 g/ha [2] | inhibition at 75 g/ha [3] | inhibition at 75 g/ha [10] | pest or weed control at 1200 g/ha [4] | inhibition at 1200 g/ha [5] | inhibition at 1200 g/ha [6] | inhibition at 1200 g/ha [7]

CC(C)[C@]12C[C@@H](OCc3ccc(Cl)cc3)[C@](C)(C[C@@H]1Br)O2 [1-693, (1S,2R,4R,5S)-5-bromo-2-[(4-chlorophenyl)methoxy]-1-methyl-4-isopropyl-7-oxabicyclo[2.2.1]heptane]
≥ 80%: inhibition at 75 g/ha [8] | inhibition at 75 g/ha [1] | inhibition at 1200 g/ha [2] | inhibition at 75 g/ha [3] | inhibition at 75 g/ha [10] | pest or weed control at 1200 g/ha [4] | inhibition at 1200 g/ha [5] | inhibition at 1200 g/ha [6] | inhibition at 1200 g/ha [7]

CC(C)[C@]12C[C@@H](OCc3ccccc3C#N)[C@](C)(C[C@@H]1Br)O2 [1-703, 2-[[(1S,2R,4R,5S)-5-bromo-1-methyl-4-isopropyl-7-oxabicyclo[2.2.1]heptan-2-yl]oxymethyl]benzonitrile]
≥ 80%: inhibition at 75 g/ha [9] | inhibition at 75 g/ha [1] | inhibition at 1200 g/ha [2] | inhibition at 75 g/ha [3] | inhibition at 75 g/ha [10] | pest or weed control at 1200 g/ha [4] | inhibition at 1200 g/ha [5] | inhibition at 1200 g/ha [6] | inhibition at 1200 g/ha [7]

CC(C)[C@]12C[C@@H](OCc3ccc(Cl)cc3Cl)[C@](C)(C[C@@H]1Br)O2 [1-717, (1S,2R,4R,5S)-5-bromo-2-[(2,4-dichlorophenyl)methoxy]-1-methyl-4-isopropyl-7-oxabicyclo[2.2.1]heptane]
≥ 80%: inhibition at 75 g/ha [8] | inhibition at 75 g/ha [9] | inhibition at 75 g/ha [1] | inhibition at 1200 g/ha [2] | inhibition at 75 g/ha [3] | pest or weed control at 1200 g/ha [4] | inhibition at 1200 g/ha [5] | inhibition at 1200 g/ha [6] | inhibition at 1200 g/ha [7]

CC(C)CC1C[C@]2(C)O[C@@]1(C(C)C)C[C@H]2OCc1ccccc1F (stereo partly drawn) [1-915, (1S,2R,4R)-2-((2-fluorobenzyl)oxy)-5-isobutyl-4-isopropyl-1-methyl-7-oxabicyclo[2.2.1]heptane]
≥ 80%: inhibition at 75 g/ha [8] | inhibition at 75 g/ha [9] | inhibition at 75 g/ha [1] | inhibition at 1200 g/ha [2] | inhibition at 75 g/ha [3] | pest or weed control at 1200 g/ha [4] | inhibition at 1200 g/ha [5] | inhibition at 1200 g/ha [6] | inhibition at 1200 g/ha [7]

C=CCO[C@H]1C[C@]2(C)O[C@@]1(C(C)C)C[C@H]2OCc1ccccc1F [1-1602, (1S,2R,4R,5S)-2-[(2-fluorophenyl)methoxy]-1-methyl-4-isopropyl-5-prop-2-enoxy-7-oxabicyclo[2.2.1]heptane]
≥ 80%: inhibition at 75 g/ha [8] | inhibition at 75 g/ha [9] | inhibition at 75 g/ha [1] | inhibition at 1200 g/ha [2] | inhibition at 75 g/ha [3] | inhibition at 75 g/ha [10] | inhibition at 75 g/ha [11] | inhibition at 1200 g/ha [5] | inhibition at 1200 g/ha [6] | inhibition at 1200 g/ha [7]

CC(C)[C@]12C[C@@H](OCc3ccccc3Cl)[C@](C)(CC1=O)O2 [2-11, (1R,4S,5R)-5-((2-chlorobenzyl)oxy)-1-isopropyl-4-methyl-7-oxabicyclo[2.2.1]heptan-2-one]
≥ 80%: inhibition at 75 g/ha [8] | inhibition at 75 g/ha [9] | inhibition at 75 g/ha [1] | inhibition at 1200 g/ha [2] | inhibition at 75 g/ha [3] | inhibition at 75 g/ha [10] | inhibition at 75 g/ha [11] | inhibition at 1200 g/ha [5] | inhibition at 1200 g/ha [6] | inhibition at 1200 g/ha [7]

CC(C)[C@]12C[C@@H](OCc3cc(F)ccc3F)[C@](C)(CC1=O)O2 [2-18, (1R,4S,5R)-5-((2,5-difluorobenzyl)oxy)-1-isopropyl-4-methyl-7-oxabicyclo[2.2.1]heptan-2-one]
≥ 80%: inhibition at 75 g/ha [8] | inhibition at 75 g/ha [9] | inhibition at 75 g/ha [1] | inhibition at 1200 g/ha [2] | inhibition at 75 g/ha [3] | inhibition at 75 g/ha [10] | inhibition at 75 g/ha [11] | inhibition at 1200 g/ha [5] | inhibition at 1200 g/ha [6] | inhibition at 1200 g/ha [7]

CC(C)[C@]12C[C@@H](OCc3cccc(F)c3)[C@](C)(CC1=O)O2 [2-351, (1R,4S,5R)-5-((3-fluorobenzyl)oxy)-1-isopropyl-4-methyl-7-oxabicyclo[2.2.1]heptan-2-one]
≥ 80%: inhibition at 75 g/ha [8] | inhibition at 75 g/ha [9] | inhibition at 75 g/ha [1] | inhibition at 1200 g/ha [2] | inhibition at 75 g/ha [3] | inhibition at 75 g/ha [10] | pest or weed control at 1200 g/ha [4] | inhibition at 1200 g/ha [5] | inhibition at 1200 g/ha [6] | inhibition at 1200 g/ha [7]
